Patent US6589975B2, “Synthetic compounds for treatment of inflammation” (The Regents of the University of California, priority 1998, dated 2003)
Several values for one entry are separate records, joined by “and”; a condition that tells them apart may be missing. Equal values may be shown once. Marks after values point to notes of the source that are not given here.

Key:
[1] = test system: RTX-induced mouse ear edema; test: Inhibition of resiniferatoxin (RTX)-induced inflammation (edema) of the mouse ear; type: in vivo; design: Mean (edema): unit not given here; details: for % Inhibition of Edema (RTX-induced edema in mouse ears): Dose 50 μg/ear; for activity in inhibition of RTX-induced edema: in words; for % Inh. Of Edema / Mean (edema) / Mean (difference, edema) / Difference (left ear minus right ear), single animals: RTX 0.1 μg/ear; for ED50 for inhibition of RTX-induced edema: topical, with RTX
Protocol: Induction of mouse ear edema can be conducted according to known methods. See Inoue, 1-f., N. Nagata, Y. Koshffiara (1993), which is herein incorporated by reference. Compounds to be tested for anti-neurogenic inflammatory activity are topically applied in acetone to the ears of mice in a solution that includes the edema-causing irritant resiniferatoxin (RTX). […] After a 30-minute incubation, the mice are sacrificed, the ears removed, and bores taken and weighed. Edema is measured by subtracting the weight of the right ear (acetone control) from the weight of the left ear (treated). Results are recorded as % decrease (inhibition) or % increase (potentiation) in edema relative to the control group edema.
Soritin B was tested for anti-neurogenic inflammatory activity by topically applying in acetone to the ears of mice in a solution that includes the edema-causing irritant resiniferatoxin (RTX) as provided above. See Inoue, 1-f., N. Nagata, Y. Koshffiara (1993), which is herein incorporated by reference. […] After a 30-minute incubation, the mice are sacrificed, the ears removed, and bores taken and weighed. Edema was measured by subtracting the weight of the right ear (acetone control) from the weight of the left ear (treated). Results were recorded as % decrease (inhibition) or % increase (potentiation) in edema relative to the control group edema.

[2] = test system: PMA-induced mouse ear edema; test: Inhibition of PMA-induced inflammation (edema) of the mouse ear; type: in vivo; design: Mean (edema): unit not given here; details: for ED50, topical inhibition of PMA-induced mouse ear edema: with PMA; for Difference (left ear minus right ear), single animals: listed as Compound I
Protocol: The test compound and a known inflammatory agent, phorbol myristate acetate (PMA), are topically applied simultaneously to the left ears of mice. Three hours and 20 minutes following application, the mice are sacrificed. Both left ears and right ears are removed and standard sized bores taken. Edema (inflammation) is measured as the difference in weight between left and right ears. See Van Arman, C. G. (1974) Clin. Pharmacol. Ther. 16:900-904, which is herein incorporated by reference.
Soritin B and a known inflammatory agent, phorbol myristate acetate (PMA), were topically applied simultaneously to the left ears of mice. Three hours and 20 minutes following application, the mice were sacrificed. Both left ears and right ears were removed and standard sized bores taken. Edema (inflammation) was measured as the difference in weight between left and right ears. See Van Arman, C. G. (1974) Clin. Pharmacol. Ther. 16:900-904, which is herein incorporated by reference.

[3] = Soritin B assay: coloration in solution; type: physicochemical; details: dissolved in acetone
[4] = 3.12 μg/ear, PMA 2.0 μg/ear, n = 15
[5] = 6.25 μg/ear, PMA 2.0 μg/ear, n = 15
[6] = 12.5 μg/ear, PMA 2.0 μg/ear, n = 15
[7] = 25 μg/ear, PMA 2.0 μg/ear, n = 15
[8] = 50 μg/ear, listed as Compound I

O=CC(c1c[nH]c2ccccc12)c1c[nH]c2ccccc12 [HB-237, 2,2-bis(3,3′indolyl) acetaldehyde]
% Inhibition of Edema (RTX-induced edema in mouse ears) [1]: 50.1% | activity in inhibition of RTX-induced edema [1]: show activity

COC(=O)C(c1c[nH]c2ccccc12)c1c[nH]c2ccccc12 [Soritin B, bis-(1H-indol-3-yl)-acetic acid methyl ester]
% Inh. Of Edema [2, 4]: 14.6% | Mean (edema) [2, 4]: 10.0** | % Inh. Of Edema [2, 5]: 17.1% | Mean (edema) [2, 5]: 9.7** | % Inh. Of Edema [2, 6]: 27.1% | Mean (edema) [2, 6]: 8.6* | % Inh. Of Edema [2, 7]: 50.0% | Mean (edema) [2, 7]: 5.9* | Mean (edema) ([2]; 50 μg/ear, PMA 2.0 μg/ear, n = 15): 3.4* | ED50, topical inhibition of PMA-induced mouse ear edema [2]: 24.2 μg/ear | % Inh. Of Edema ([1]; 3.12 μg/ear, n = 15): 7.7% | Mean (edema) ([1]; 3.12 μg/ear, n = 15): 9.1 | % Inh. Of Edema ([1]; 6.25 μg/ear, n = 15): 34.3% | Mean (edema) ([1]; 6.25 μg/ear, n = 15): 6.5* | % Inh. Of Edema ([1]; 12.5 μg/ear, n = 15): 61.0% | Mean (edema) ([1]; 12.5 μg/ear, n = 15): 3.2* | % Inh. Of Edema ([1]; 25 μg/ear, n = 14): 79.2% | Mean (edema) ([1]; 25 μg/ear, n = 14): 1.7* | Mean (edema) ([1]; 50 μg/ear, n = 15): 1.0* | ED50 for inhibition of RTX-induced edema [1]: 10.9 μg/ear | color in solution [3]: light amber color

O=C(O)C(c1c[nH]c2ccccc12)c1c[nH]c2ccccc12 [Soritin A, bis-(1H-indol-3-yl)-acetic acid]
% Inh. Of Edema ([2]; 3.12 μg/ear, PMA 2 μg/ear): 52.9% | Mean (difference, edema) ([2]; 3.12 μg/ear, PMA 2 μg/ear): 6.4 mg | Difference (left ear minus right ear), single animals ([2]; 3.12 μg/ear, PMA 2 μg/ear): 4.0 mg and 8.7 mg (2×) and 4.3 mg | % Inh. Of Edema ([2]; 6.25 μg/ear, PMA 2 μg/ear): 75.1% | Mean (difference, edema) ([2]; 6.25 μg/ear, PMA 2 μg/ear): 3.4 mg | Difference (left ear minus right ear), single animals ([2]; 6.25 μg/ear, PMA 2 μg/ear): 1.2 mg and 4.5 mg and 2.4 mg and 5.5 mg | % Inh. Of Edema ([2]; 12.5 μg/ear, PMA 2 μg/ear): 77.3% | Mean (difference, edema) ([2]; 12.5 μg/ear, PMA 2 μg/ear): 3.1 mg | Difference (left ear minus right ear), single animals ([2]; 12.5 μg/ear, PMA 2 μg/ear): 4.1 mg and 1.9 mg and 1.2 mg and 5.2 mg | % Inh. Of Edema ([2]; 25 μg/ear, PMA 2 μg/ear): 84.9% | Mean (difference, edema) ([2]; 25 μg/ear, PMA 2 μg/ear): 2.1 mg | Difference (left ear minus right ear), single animals ([2]; 25 μg/ear, PMA 2 μg/ear): 1.7 mg and 3.4 mg and 0.4 mg and 2.8 mg | % Inh. Of Edema ([2]; 50 μg/ear, PMA 2 μg/ear): 87.5% | Mean (difference, edema) ([2]; 50 μg/ear, PMA 2 μg/ear): 1.7 mg | Difference (left ear minus right ear), single animals ([2]; 50 μg/ear, PMA 2 μg/ear): 1.6 mg and 2.2 mg and 1.3 mg and 1.7 mg | potency in reducing PMA-induced mouse ear edema relative to known anti-inflammatories ([2]; in words): greater potency than the known anti-inflammatories hydrocortisone, indomethacin, manoalide and topsentin | ED50, topical inhibition of PMA-induced mouse ear edema [2]: 1.3 μg/ear | % Inh. Of Edema ([1]; 3.12 μg/ear): 49.9% | Mean (difference, edema) ([1]; 3.12 μg/ear): 6.0 mg | Difference (left ear minus right ear), single animals ([1]; 3.12 μg/ear, listed as Compound I): 6.0 mg (2×) and 6.6 mg and 7.1 mg and 4.1 mg and 6.3 mg | % Inh. Of Edema ([1]; 6.25 μg/ear): 33.6% | Mean (difference, edema) ([1]; 6.25 μg/ear): 8.0 mg | Difference (left ear minus right ear), single animals ([1]; 6.25 μg/ear, listed as Compound I): 6.0 mg and 11.2 mg and 7.3 mg and 10.1 mg and 8.3 mg and 5.0 mg | % Inh. Of Edema ([1]; 12.5 μg/ear): 76.8% | Mean (difference, edema) ([1]; 12.5 μg/ear): 2.8 mg | Difference (left ear minus right ear), single animals ([1]; 12.5 μg/ear, listed as Compound I): 3.8 mg and 3.6 mg and 3.1 mg and 1.1 mg and 1.7 mg and 3.4 mg | % Inh. Of Edema ([1]; 25 μg/ear): 87.9% | Mean (difference, edema) ([1]; 25 μg/ear): 1.5 mg | Difference (left ear minus right ear), single animals ([1]; 25 μg/ear, listed as Compound I): 4.1 mg and 0.2 mg and 2.1 mg and 0.6 mg and 0.3 mg | Mean (difference, edema) ([1]; 50 μg/ear): 0.3 mg | % Inh. Of Edema [1, 8]: 97.7% | Difference (left ear minus right ear), single animals [1, 8]: 0.1 mg and −0.2 mg (2×) and 1.5 mg | % Inh. Of Edema ([1]; 50 μg/ear, listed as Soritin A (I)): approximately 97.7% | % Inhibition of Edema (RTX-induced edema in mouse ears) [1]: 97.7% | ED50 for inhibition of RTX-induced edema [1]: 5.1 μg/ear

O=C(c1nc(-c2c[nH]c3ccccc23)c[nH]1)c1c[nH]c2cc(O)ccc12 [Topsentin, topsentin, reference compound]
ED50, topical inhibition of PMA-induced mouse ear edema [2]: 15 μg/ear

CC1=C(CC/C(C)=C/CCC2=CC[C@H](C3=CC(=O)O[C@H]3O)O[C@H]2O)C(C)(C)CCC1 [Manoalide, manoalide, reference compound]
ED50, topical inhibition of PMA-induced mouse ear edema [2]: 100 μg/ear

C[C@]12CCC(=O)C=C1CC[C@@H]1[C@@H]2[C@@H](O)C[C@@]2(C)[C@H]1CC[C@]2(O)C(=O)CO [Hydrocortisone, hydrocortisone, reference compound]
ED50, topical inhibition of PMA-induced mouse ear edema [2]: 20 μg/ear

c1ccc2c(Cc3c[nH]c4ccccc34)c[nH]c2c1 [HB-236, bis(3,3′indolyl)methane]
% Inhibition of Edema (RTX-induced edema in mouse ears) [1]: 59.1% | activity in inhibition of RTX-induced edema [1]: show activity

COc1ccc2c(c1)c(CC(=O)O)c(C)n2C(=O)c1ccc(Cl)cc1 [Indomethacin, indomethacin, reference compound]
ED50, topical inhibition of PMA-induced mouse ear edema [2]: 250 μg/ear
